Key:
FcrA [1] = experiment: FcrA activity assays (spectrophotometric, NADPH oxidation / DTNB); format: biochemical, Rhodococcus jostii RHA1; details: for Specific Activity: 5 μM acyl-CoA, 200 μM NADPH, pH 7.0, 25° C.
Experimental: FcrA activity was evaluated using two spectrophotometric assays. Assays were performed at 25° C. in 1 mL 20 mM MOPS, 80 mM NaCl, pH 7.0 (I=0.1 M) containing 5 μM acyl-CoA and 200 μM NADPH. Reactions were initiated by the addition of FcrA to a final concentration of 0.5 to 2 μM. In one assay, the oxidation of NADPH was followed at 340 nm (E=6.3 mM mM^−1 cm^−1 [43]). In the second assay, the reaction mixture also contained 0.1 mg/mL DTNB, and the formation of NTB^2− was followed at 412 nm (E=14.15 mM^−1 cm^−1 for NTB^2−[44]). Reaction rates were calculated from progress curves using Cary WinUV Kinetics Application (Agilent). The pH-dependence of the reaction was evaluated using the DTNB assay and a series of 20 mM Good's buffers (MES, MOPS, HEPPS, or TAPS), 80 mM NaCl (I=0.1 M), pH 6 to 9.
Because related two-domain enzymes completely reduce acyl-CoAs to fatty alcohols and have been used in biotechnology applications, further efforts were focused on exploring the function of FcrA, To investigate the activity of FcrA, it was first produced as a C-terminally His-tagged protein in RHA1 and purified to greater than 95% apparent homogeneity (FIG. 4A). The molecular mass of FcrA-His6 was 73627 Da, which corresponds to the mass of the protein (73758 Da) less the N-terminal methionine (131 Da). Then, to evaluate the ability of FcrA to catalyze the formation of fatty alcohols, 1.4 μM FcrA was incubated with 400 μM NADPH and 100 μM oleoyl-CoA in 1 mL 20 mM Tris-HCl, pH 7.0, 50 mM NaCl for 20 h at room temperature. The reaction was quenched with 1 mL saturated NaCl and 100 μM of tetradecanol was added as a standard. […] No alcohol was detected in control reactions in which FcrA was omitted. […] As with previously characterized FARs, activity was maximal at pH 7.0. […] Among the tested substrates, FcrA had highest specific activity for stearoyl-CoA (C18-CoA), reducing it at a rate of 45±3 nmol/mg·min. The specific activity of FcrA dropped off with decreasing chain length of the acyl-CoA substrate (Table 2).

FcrA [2] = experiment: FcrA fatty alcohol formation, reaction products analysed by GC/MS; format: biochemical, Rhodococcus jostii RHA1; details: 1.4 μM FcrA, 400 μM NADPH, 100 μM oleoyl-CoA, pH 7.0, 20 h, room temperature
Experimental: To analyze fatty alcohols produced in vitro, quenched reactions of 2 mL were extracted with 5 mL of 2:1 chloroform:methanol (v/v). The organic phase was collected, washed once with 1:1 H2O:methanol, and three times with H2O. The organic phase was removed and dried under nitrogen stream. The extract was suspended in pyridine and derivatized with […] for 1 h at 60° C. Derivatized extracts were analyzed by gas chromatography-mass spectrometry (GC/MS) as described below.
Analyses were performed using an Agilent 6890n gas chromatograph system fitted with an HP-5 MS 30 m×0.25 mm capillary column (Hewlett-Packard) and an Agilent 5973n mass-selective detector. […] WEs were further identified by comparison to an authentic stearyl stearate standard and were quantified using a standard curve generated using palmityl myristate (Nu-Chek Prep).
Because related two-domain enzymes completely reduce acyl-CoAs to fatty alcohols and have been used in biotechnology applications, further efforts were focused on exploring the function of FcrA, To investigate the activity of FcrA, it was first produced as a C-terminally His-tagged protein in RHA1 and purified to greater than 95% apparent homogeneity (FIG. 4A). […] No alcohol was detected in control reactions in which FcrA was omitted. […]

| Structure (SMILES) | Specific Activity (FcrA [1]; FcrA with acyl-CoA substrate) | also measured |
| --- | --- | --- |
| NC(=O)C1=CN([C@@H]2O[C@H](COP(=O)(O)OP(=O)(O)OC[C@H]3O[C@@H](n4cnc5c(N)ncnc54)[C@H](O)[C@@H]3O)[C@@H](O)[C@H]2O)C=CC1 [NADH] |  | FcrA activity with cofactor in place of NADPH (FcrA [1]; NADPH substituted with NADH): no activity was detected |
| CCCCCCCCCCCCCCCC(=O)SCCNC(=O)CCNC(=O)[C@H](O)C(C)(C)COP(=O)(O)OP(=O)(O)OC[C@H]1O[C@@H](n2cnc3c(N)ncnc32)[C@H](O)[C@@H]1OP(=O)(O)O [Palmitoyl-CoA] | 7.0 ± 0.1 nmol/min/(mg protein) |  |
| CCCCCCCCCCCCCCCCCC(=O)SCCNC(=O)CCNC(=O)[C@H](O)C(C)(C)COP(=O)(O)OP(=O)(O)OC[C@H]1O[C@@H](n2cnc3c(N)ncnc32)[C@H](O)[C@@H]1OP(=O)(O)O [Stearoyl-CoA] | 45 ± 3 nmol/min/(mg protein) | specific activity (rate of reduction by FcrA) (FcrA [1]; FcrA with acyl-CoA substrate): 45 ± 3 nmol/mg/min |
| CCCCCCCC/C=C\CCCCCCCC(=O)SCCNC(=O)CCNC(=O)[C@H](O)C(C)(C)COP(=O)(O)OP(=O)(O)OC[C@H]1O[C@@H](n2cnc3c(N)ncnc32)[C@H](O)[C@@H]1OP(=O)(O)O [Oleoyl-CoA] | 41 ± 1 nmol/min/(mg protein) | rate of reduction by FcrA compared with stearoyl-CoA (FcrA [1]; monounsaturated acyl-CoA substrate): reduced at a similar rate to stearoyl-CoA; conversion of acyl-CoA to fatty alcohol by FcrA (FcrA [2]): converted oleoyl-CoA to oleyl alcohol |
| CCCCCCCCCCCC(=O)SCCNC(=O)CCNC(=O)[C@H](O)C(C)(C)COP(=O)(O)OP(=O)(O)OC[C@H]1O[C@@H](n2cnc3c(N)ncnc32)[C@H](O)[C@@H]1OP(=O)(O)O [Lauroyl-CoA] | 1.5 ± 0.3 nmol/min/(mg protein) |  |
